The values below come from patent publication US20230088286A1, “USP7 INHIBITOR FOR USE IN THE TREATMENT OF CANCER” (ALMAC DISCOVERY LIMITED, priority 2020, published 2023).

In data set [1] the test system is primary fibroblasts, cancer cells, immortalized fibroblasts. Put plainly: intracellular VEGF ELISA in cell lysates. The class given is cell-based, human. The settings on record: 48 h. The protocol: For the co-culture experiments, 5×10^4 cancer cells were seeded in transwell in 0.5 mL complete growth medium and placed on the top of 0.1×10^6 fibroblasts plated in 12-well in 1 mL low serum growth media overnight. Following day cancer cells were washed with PBS and media replaced with reduced (1%) serum growth media. 0.5×10^6 PBMC were plated on top of fibroblasts, incubated for 45 min and activated with CD3 (1 μg/ml final concentration) and CD28 (5 μg/ml final concentration). […] Monoculture experiments, 0.1×10^6 cells were seeded in 12-well in 1 mL of complete growth media (cancer cells) or low serum growth media (fibroblasts) and incubated overnight. […] Afterwards, cell culture media was collected, cell debris were removed by centrifugation the concentration of VEGF in the cell culture supernatants was measured using the human/mouse VEGF immunoassay Quantikine ELISA kit (R&D systems, Minneapolis, Minn., USA) according to the manufacturer's instructions. For the intracellular VEGF detection, total protein concentration was determined by BCA (Pierce Chemical, USA) and VEGF levels determined using the same kit described above.
Background: An ELISA detects its analyte on a solid surface through an enzyme-linked reagent.

The next data set relates to MMP-7. Nature of the data set: MMP-7 in supernatants of HDF invasion assay (Luminex). The class given is cell-based, human. The settings on record: invading HDF, 96 hours. How it is done:
The scratch wound cell invasion assay was used to measure the ability of primary human fibroblasts to invade through Matrigel® basement membrane. Cell culture supernatants from invasion assay were collected after 96 hours and MMP-7 levels were measured using Luminex®.
To further explore whether USP7 inhibition modulates MMP levels in invading fibroblasts, cell culture supernatants from HDF invasion assay were collected and presence of various MMP was detected using Luminex® Multiplex assay.
Concentrations of MMP2 and MMP7 were determined in cell culture supernatants in triplicates using Luminex human cytokine/chemokine multiplex kits (Millipore, St. Charles, Mo., USA) according to the manufacturer's protocol.

A further data set concerns VEGF. Put plainly: Circulating serum VEGF by ELISA in CT-26 tumour bearing mice. The class given is in vivo, mouse. As to conditions: day 15 post tumour grafting.
In data set [2] the test system is CT-26 tumours. Put plainly: Flow cytometry of tumour infiltrating immune cells, CT-26 model (AD-04). The class given is in vivo, mouse. As to conditions: dosed 10 days. How it is done:
FIG. 32: USP7 inhibition modulates the tumour microenvironment immune compartment. […] Flow cytometry analysis of tumour infiltrating immune cells in the CT-26 syngeneic model dosed with the USP7 inhibitor for 10 days.
(§1) Harvested tumours were collected in HBSS medium, minced and incubated 30 minutes at 37° C. in non-enzymatic cell dissociation buffer followed by mechanical dissociation through a 70 μm filter. Viable cells were then enriched using Ficoll® gradient. All cells suspensions were count and one million viable cells were seeded in 96-well plates in 100 μL of Staining Buffer for acquisition. Non-specific binding was performed using mouse FcR blocking reagent. Viobility 405/452 Fixable Dye (Miltenyi Biotec) was used to assess cell viability. The antibodies directed against the CD45, CD335 (Nkp46), FoxP3 CD8a, CD4, CD3e, CD19, F4/80, CD11c, CD11 b (Miltenyi Biotec), Ly6G and Ly6C (Biolegend) were added. The stained cells were analyzed with a Fortessa X20 cytometer (BD Biosciences).

Data set [3] has as its system primary human dermal fibroblasts (HDF) co-cultured with stimulated PBMCs, with or without cancer cells (HT29 or H1299). The settings on record: inhibitor concentration of 300 nM, 48 hours.
Experimental: Biomarker changes relative to the vehicle control-treated systems are presented as log-transformed ratio.
BioMAP systems were employed using primary human cells. […] Human neonatal foreskin fibroblasts (HDFn) from 3 donors were pooled and cultured according to the supplier's (Lonza, Inc., Allendale, N.J.) recommendation. Peripheral blood mononuclear cells (PBMC) were prepared from buffy coats from normal human donors according to standard methods. Autoimmune HDFSAg system consisted of primary human dermal fibroblasts (HDF) co-cultured with PBMCs stimulated with T-cell receptor (SAg) to model chronic T cell activation and inflammation. Stromal Oncology Colorectal Cancer and Non-Small Cell Lung Cancer (NSCLC) panels were composed of cancer cells (HT29 or H1299), HDF and PBMCs stimulated with SAg. This model captures the interactions between tumour cells, stimulated immune cells and the host stromal network. […] Afterwards, biomarkers were measured in supernatants from co-cultures using ELISA as following: MCP-1, VCAM-1, Collagen I, IP-10, MMP-1, sIL-10, sIL-17A, sIL-17F, sIL-2, sIL-6, SRB, sTGFb, sTNFa, sVEGF, IL-8, MIG, MCSF, uPAR, Col-III, IP-10, EGFR, HGF, Pal-1, PBMC Cytotoxicity, tPA, uPA, sGranzyme, sPGE2, slFg, Sil-13, sMDC, Collagen III, MMP-9, TIMP-2, CEACAM5, Keratin 20. Biomarker levels are presented as log-transformed ratio
In data set [4] the test system is CT-26 tumours. Put plainly: Histology and immunofluorescence of CT-26 tumours (ADC-159). The class given is in vivo, mouse. The protocol: FIG. 36: ADC-159 prevents tumour vessel maturation in CT-26 syngeneic mouse model in vivo. FFPE tumour blocks were prepared after 15 days of treatment with vehicle and ADC-159 and co-stained with endothelial cell marker CD31 (green), pericyte marker NG2 (red) and DAPI (blue; n=5 blocks/group). Mature blood vessels have fine branching positive for CD31 and NG2 staining (A, left image) which is lost when treated with USP7 inhibitor (B, right image).
FIG. 37: ADC-159 decreases tumour area and increases necrosis area in the CT-26 syngeneic mouse model in vivo. […] FFPE tumour blocks were prepared followed by quantification of tumour and necrosis using HALO software.
After rinsing with running water, the specimens were transferred to the Vacuum Tissue Processor (HistoCore PEARL, Leica) for dehydration, then embedded into FFPE blocks using Tissue embedding center (EG1150, Leica). FFPE blocks were sectioned with a manual rotary microtome (RM2235, Leica), 4 μm thickness/section. Sections were processed for staining with hematoxylin and eosin (H&E) or for immunofluorescent (IF) analysis. For IF sections were stained with primary antibodies specific for CD31 (abcam), NG2 (sigma) and cell nuclei were counterstained with DAPI. All stained sections were scanned with Pannoramic Digital Slide Scanners for 40× magnification (3[…], Pannoram ic SCAN). All the images were analyzed with HALOTM platform were tumour area and large areas of necrosis were quantified. Non-tumour tissue on the periphery was excluded.

The test system of data set [5] is CT-26 tumours. Nature of the data set: Flow cytometry of tumour infiltrating immune cells, CT-26 model (ADC-159). The class given is in vivo, mouse. The settings on record: ADC-159 alone or in combination with ICIs, 13 days. The protocol:
FIG. 40: USP7 inhibitor ADC-159 modulates the tumour microenvironment immune compartment in vivo.
as §1
In general terms: In flow cytometry, cells or beads pass a laser one at a time.

A short description of the next data set: Oral availability. The class given is in vivo. The settings on record: compared to AD-04.
Another data set can be described thus: Caco-2 permeability. The class given is in vitro ADME. As to conditions: human, Caco-2; read-out: Caco-2 Papp ratio. (In general: Caco-2 monolayers are a common model of the intestinal barrier.)
A further data set deals with Caco-2. Nature of the data set: Caco-2 permeability. The class given is in vitro ADME.
A short description of the next data set: PPB Fu (r). The class given is in vitro ADME. The settings on record: rat, plasma.
A further data set in a line: KSol. The class given is physicochemical.
A further data set can be described thus: TSol. The class given is physicochemical.
For the next data set, the target named is CYP3A4 (Homo sapiens, UniProt P08684). Put plainly: TDI shift CYP3A4. The class given is in vitro ADME. As to conditions: value in brackets; shift N/A.
CYP3A4, sequence (P08684 whole entry): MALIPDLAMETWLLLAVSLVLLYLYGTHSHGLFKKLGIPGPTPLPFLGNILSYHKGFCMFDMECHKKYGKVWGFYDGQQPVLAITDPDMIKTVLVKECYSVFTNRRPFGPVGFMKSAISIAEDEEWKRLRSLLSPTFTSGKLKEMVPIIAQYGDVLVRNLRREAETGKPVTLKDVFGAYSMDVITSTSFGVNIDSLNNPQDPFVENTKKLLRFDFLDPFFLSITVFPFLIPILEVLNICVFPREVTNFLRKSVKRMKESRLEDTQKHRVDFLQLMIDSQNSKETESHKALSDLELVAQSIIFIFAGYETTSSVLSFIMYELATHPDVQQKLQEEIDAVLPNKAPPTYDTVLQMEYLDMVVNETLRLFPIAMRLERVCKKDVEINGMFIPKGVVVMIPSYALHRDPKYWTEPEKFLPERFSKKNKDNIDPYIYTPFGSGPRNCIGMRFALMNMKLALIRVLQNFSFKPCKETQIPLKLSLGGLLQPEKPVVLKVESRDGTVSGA

The structures appear in SMILES notation.

Regarding `C[C@H](CC(=O)N1CCC(O)(Cn2cnc3c(-c4ccc(CN)cc4)n(C)nc3c2=O)CC1)c1ccccc1` [AD-04, (R)-3-(4-(Aminomethyl)phenyl)-6-((4-hydroxy-1-(3-phenylbutanoyl)piperidin-4-yl)methyl)-2-methyl-2H-pyrazolo[4,3-d]pyrimidin-7(6H)-one], in data set [1] (cancer cells or immortalized fibroblasts), the “intracellular VEGF levels” value was “not in cancer cells or immortalized fibroblasts”. The “intracellular VEGF levels” value in data set [1] (primary fibroblast lysates) was “decreases”. For the same compound, in the data set on MMP-7, the MMP-7 levels result is on record as “decreases”. The “circulating VEGF in mouse serum” value with VEGF is recorded as “significant dose-dependent decrease”. Further, in the data set on CT-26 tumours [2], the “CD4 lymphocytes among TILs” value is recorded as “no significant change”, the “cytotoxic T-lymphocytes among TILs” value is on record as “significant increase” and the “macrophages in myeloid cell infiltrate” value is “decrease”. Further, the “decrease in secreted VEGF (sVEGF)” value in [3] is given as 3 log fold.
As for `CC1(C(=O)N2CCC(O)(Cn3cnc4c(cc(Cl)n4-c4ccc5c(c4)CCO5)c3=O)CC2)CC1` [ADC-159, 6-Chloro-7-(2,3-dihydrobenzofuran-5-yl)-3-((4-hydroxy-1-(1-methylcyclopropane-1-carbonyl)piperidin-4-yl)methyl)-3,7-dihydro-4H-pyrrolo[2,3-d]pyrimidin-4-One], in the data set on CT-26 tumours [4] (100 mg/kg, compared to vehicle), the “necrosis area at the tumour site” value is “significant increase” and the tumour area result was “significant reduction”. Moreover, the “tumour vessel formation (CD31/NG2 staining)” value in the data set with CT-26 tumours [4] (15 days of treatment) was “prevents tumour vessel formation”. Moreover, in the data set on CT-26 tumours [5], the “recruitment of cytotoxic lymphocytes into the tumour” value was “increases recruitment”. The oral availability result in “Oral availability” was “improved oral availability”. Moreover, the efflux ratio in “Caco-2 permeability” is 4.1. In the data set on Caco-2 (A:B), the “Caco-2 A:B” value stood at 8.5. In addition, the “Caco-2 B:A” value in the data set with Caco-2 (B:A) came out at 34.7. Further, in the data set “PPB Fu (r)”, the fraction unbound (as a rule, free concentration divided by total concentration) turned out to be 0.12. The KSol in the data set “KSol” stood at 199 µM. The same compound registered a TSol in “TSol” of 500 µM. Besides, on CYP3A4, the IC50 – broadly, the concentration at which inhibition is half-maximal – was above 20 µM.
